Assay results from US12479805B2, “Indazole hydrazide compound and application thereof” (Beijing Baheal Chengchuang Pharmaceutical Research and …, priority 2021, dated 2025).
Read-outs that look alike come from different tables or passages of the source.

Key:
[1] = system: tumor cells and HUVEC cells spheroids; test: 3D co-culture of tumor cells and HUVEC cells anti-angiogenesis experiment; assay type: cell-based, human; details: 0.3 μM, 1.0 μM, day 2 and day 5, VEGF 20 ng/mL
Method: 3.2 Experiments of Evaluating Anti-Angiogenesis of Compounds by 3D Co-Culture of Tumor Cells and HUVEC Cells: • (1) 25,000 tumor cells and 25,000 HUVEC cells were mixed and plated in a low-adsorption 24-well plate. Cells were shaken horizontally in a 37° C. incubator and placed for 24 h to form a suspension of Spheroids. • (2) 40 uL of 10% Matrigel was added to each well, and placed at 37° C. for 45 min to crosslink and harden the gel. 40 uL of suspension with Spheroids was added to wells. • (3) After 24 h, 10 uL of compounds with three concentrations of high, medium and low was added to the test compound group. In the VEGF group, 10 uL of culture medium containing 200 ng/ml VEGF was added. In the solvent group, 20 uL culture medium was supplemented. • (4) Cells were incubated in a 37° C. 5% CO2 incubator for 0, 2, 5, and 7 days, and photos of each well were taken.
Bright-field photos were taken under the microscope, scale bar=100 μm. The imageview software measurement tool was used to count the length of the blood vessels generated by one organoid. The average of the total length of blood vessels was calculated. It was compared with the 20 ng/ml VEGF group. *p<0.05, **p<0.01. Error bars indicate ±SEM.
In the 3D […] experiment, the following conclusions can be drawn based on the bright field photos and the total length of blood vessels on 0, 2, 5, and 7 days after addition of drugs: […]

[2] = system: HUVEC cells; test: 2D angiogenesis experiment (HUVEC on Matrigel); assay type: cell-based, human; details: VEGF, 4 h
Method: 3.1 Evaluation of Anti-Angiogenesis of Compounds by 2D Angiogenesis Experiment:
(1) In a 96-well plate, 50 ul of 100% Matrigel was added to each well and air bubbles should be avoided. The plate was then placed in a 37° C. incubator for 45 minutes.
(2) When the confluence of HUVEC cells in good growth state reached about 80%, the cells were digested, and resuspended in HUVEC complete medium. 40 uL of resuspension was added to each well in triplicate at a concentration of 4×10000 cells/well.
(3) 5 uL of compounds with three concentrations of high, medium and low was added to the test compound group. In the VEGF group, 5 uL of culture medium containing 200 ng/ml VEGF was added. In the solvent group, 10 uL culture medium was supplemented.
(4) Cells were incubated in a 37° C. 5% CO2 incubator for 4 h, and photos of each well were taken.

[3] = system: tumor cells LNCaP; test: Anti-tumor activity assay (chemiluminescence CTG cell viability), LNCaP; assay type: cell-based; details: for IC50: Homo sapiens, 72 h, CTG chemiluminescence
Method: (§1) The frozen tumor cells (prostate cancer, ovarian cancer, etc.) were taken out from liquid nitrogen, and quickly dissolved at 37° C. The cells were added to 5 ml of the corresponding medium containing FBS and centrifuged at 300 g for 5 minutes. The precipitate was collected, resuspended with the corresponding medium and then mixed well. After that, cells were added to a 24-well cell culture dish, supplemented with the medium to a total volume of 2 mL per well at 37° C. and cultured. After the confluence reached about 90%, subculturing or counting and plating was performed.
(§2) After the cultured tumor cells were sufficient to be passaged, they were digested with trypsin and a single cell suspension was prepared. After counting, cells were adjusted to a concentration of 1.2×10^4 cells/ml with the corresponding medium. 90 μl of the mixed solution was added to a 96-well plate and incubated at 37° C. for 30 minutes. Then the mixture was added with the corresponding medium and incubated in a cell incubator at 37° C. overnight. The morphology and confluence of tumor cells were observed.
(§3) After the tumor cells were cultured overnight, serial dilutions of the compounds were prepared and added to the culture system.
(§4) The stock solution of the indazole hydrazide compound (100 mM) dissolved in DMSO was fully dissolved at room temperature. If there was any insoluble matter, heating and ultrasonication were carried out for 5 minutes to observe until dissolution.
(§5) 20 μl DMSO was added to wells 2-9 of a 96-well V-shaped compound dilution plate, and 30 μl stock solution was added to well 1. The compound dilution plate was placed on a shaking mixer. 10 μl liquid was transferred from well 1 to well 2, mixed well by pipetting and shaking, then 10 μl of liquid was transferred from well 2 to well 3, mixed well by pipetting and shaking, and so on . . . and finally 10 μl of liquid was transferred from well 8 to well 9, mixed well by pipetting and shaking, and 1000× gradient dilution stock solution was prepared. [Note: As DMSO easily absorbs moisture in the air, after the operation, the compound dilution plate was immediately sealed with parafilm, stored at 4° C., and discarded after 1 week. When using it again, the parafilm was removed after the temperature reached room temperature to avoid inaccurate concentration caused by moisture absorption.]
(§6) In the ultra-clean workbench, a 96-well sterile cell culture plate was used. 198 μl of medium was added to wells 1-9, and 2 μl of the stock solution in wells 1-9 of the 1000× stock solution was transferred to the corresponding wells 1-9 of the 96-well sterile cell culture plate, mixed well by pipetting and shaking, and […] was prepared. This stock solution needed to be prepared and used on the same day.
(§7) 10 μl of the 10× stock solution prepared on the day was added to the cell culture medium.
(§8) It was incubated for 72 h at 37° C. under 5% carbon dioxide conditions.
(§9) Chemiluminescence method was used to measure ATP level of cells to evaluate cell viability. The specific operation was performed in accordance with the instructions. After the incubation, 50 μL of CTG solution was added. After mixing well, the lysis mixture was transferred to a microplate reader. After 5-10 minutes, the chemiluminescence data were gathered in the microplate reader. Excel software was used to analyze and process the data, and GraphPad Prism 7 software was used to calculate IC50 according to the fitted dose-effect curve generated by the chemiluminescence data.
(§10) In this test, Z factor was used as a quality control indicator. Z′ factor was defined by 4 parameters: the mean (μ) and standard deviation (σ) of the positive control (positive, p) and the negative control (negative, n).
(§11) The negative control group was the untreated group with the addition of solvent (DMSO); the positive control was 2.5 μM BEZ235 or 1 μM Staurosporine. […]

[4] = target: integrin protein αvβ3 (Homo sapiens, UniProt P05106+P06756); test: Affinity test by surface plasmon resonance (Biacore 8K); assay type: binding
Sequence of integrin protein αvβ3 (P06756 31-1048): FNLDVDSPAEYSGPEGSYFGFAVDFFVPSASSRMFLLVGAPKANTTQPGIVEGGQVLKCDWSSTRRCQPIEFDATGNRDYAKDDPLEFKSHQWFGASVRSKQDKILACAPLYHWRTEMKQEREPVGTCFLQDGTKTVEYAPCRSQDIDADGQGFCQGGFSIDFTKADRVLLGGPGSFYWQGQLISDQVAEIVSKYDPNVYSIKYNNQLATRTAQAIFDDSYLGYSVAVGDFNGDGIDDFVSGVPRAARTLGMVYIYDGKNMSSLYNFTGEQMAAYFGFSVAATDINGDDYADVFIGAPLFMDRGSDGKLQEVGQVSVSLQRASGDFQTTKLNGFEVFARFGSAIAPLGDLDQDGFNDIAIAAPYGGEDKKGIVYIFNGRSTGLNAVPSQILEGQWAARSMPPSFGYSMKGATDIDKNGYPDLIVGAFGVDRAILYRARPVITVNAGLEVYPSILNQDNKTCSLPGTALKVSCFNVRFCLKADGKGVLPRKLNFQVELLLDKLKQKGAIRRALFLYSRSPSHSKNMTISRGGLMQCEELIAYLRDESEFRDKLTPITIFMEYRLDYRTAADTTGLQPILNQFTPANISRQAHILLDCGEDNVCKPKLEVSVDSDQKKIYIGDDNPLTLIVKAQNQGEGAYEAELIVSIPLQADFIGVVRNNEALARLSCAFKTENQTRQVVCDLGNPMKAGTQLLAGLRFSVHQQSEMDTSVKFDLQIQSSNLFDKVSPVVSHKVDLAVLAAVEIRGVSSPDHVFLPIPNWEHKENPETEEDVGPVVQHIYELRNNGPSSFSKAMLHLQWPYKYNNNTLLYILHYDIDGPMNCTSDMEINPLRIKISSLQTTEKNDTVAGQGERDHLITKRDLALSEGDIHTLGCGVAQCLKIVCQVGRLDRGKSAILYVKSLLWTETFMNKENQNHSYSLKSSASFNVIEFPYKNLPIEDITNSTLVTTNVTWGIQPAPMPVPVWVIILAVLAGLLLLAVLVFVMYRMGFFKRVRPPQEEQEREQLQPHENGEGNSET
Sequence of integrin protein αvβ3 (P05106 27-788): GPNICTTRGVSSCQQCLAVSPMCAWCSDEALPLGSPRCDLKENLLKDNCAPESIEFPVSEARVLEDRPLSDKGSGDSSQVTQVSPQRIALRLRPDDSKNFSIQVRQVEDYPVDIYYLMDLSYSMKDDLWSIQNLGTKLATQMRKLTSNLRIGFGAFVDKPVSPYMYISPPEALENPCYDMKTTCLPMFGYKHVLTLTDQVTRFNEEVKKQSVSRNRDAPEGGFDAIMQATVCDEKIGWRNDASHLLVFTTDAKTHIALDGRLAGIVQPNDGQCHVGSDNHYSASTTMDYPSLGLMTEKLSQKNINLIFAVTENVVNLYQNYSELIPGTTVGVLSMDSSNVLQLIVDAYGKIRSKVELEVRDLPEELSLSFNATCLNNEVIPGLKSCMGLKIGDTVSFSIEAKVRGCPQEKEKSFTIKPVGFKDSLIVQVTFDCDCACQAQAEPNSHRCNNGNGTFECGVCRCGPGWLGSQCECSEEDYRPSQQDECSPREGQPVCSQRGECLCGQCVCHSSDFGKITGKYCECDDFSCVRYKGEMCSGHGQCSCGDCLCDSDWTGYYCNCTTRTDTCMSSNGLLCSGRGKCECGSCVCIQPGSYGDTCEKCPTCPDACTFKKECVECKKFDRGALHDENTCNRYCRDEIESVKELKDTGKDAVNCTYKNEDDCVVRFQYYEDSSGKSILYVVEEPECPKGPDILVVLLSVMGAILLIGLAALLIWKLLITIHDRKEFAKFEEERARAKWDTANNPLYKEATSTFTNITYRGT
Method: The surface plasmon resonance instrument Biacore 8K was used to analyze the interaction between the compound and the integrin protein αvβ3. First, the system temperature was set to 25° C., and the flow rate to […]. PBS buffer was passed until the baseline was stable.
Without activating the surface of the chip, the integrin αvβ3 protein sample was dissolved in sodium acetate buffer with different pH values (pH=4, 4.5, 5) to make it carry different amounts of charge. Then the integrin protein sample flowed through the surface of the chip at a flow rate of 10 μL/min. Through the binding curve of integrin and the chip, a appropriate pH condition (pH=4.0) was determined. Finally, 50 mM NaOH eluate was injected to wash away the protein adsorbed on the chip surface.
CM5 chip was selected. The protein coupling was operated according to the amino coupling method, and the coupling steps are as follows: • (1) Activation: NHS/EDC mixture (0.1 M NHS and 0.4 M EDC, mixed at a volume ratio of 1:1 before use, and used immediately) was injected for 800 s at a flow rate of 10 μL/min, to activate the carboxyl of glucan on the surface of the chip; • (2) Immobilization: 20 ng/μL integrin αvβ3 protein solution was prepared with the buffer with the pH value determined in the pretreatment, and was injected for 800 s at a flow rate of 10 μL/min; • (3) Blocking: 1 M ethanolamine hydrochloride was used to block for 800 s to complete the immobilization process of the protein. 4.1.4 Binding Experiment
The compound to be tested was dissolved in PBS-P buffer (1.0×PBS, pH7.4, 0.15M Nacl, 0.05% tween-20), to prepare to a concentration of 50 μM. It was injected at a flow rate of 10 μL/min for a preliminary binding analysis.
The compound that was positive in the preliminary analysis was then prepared with buffers to a concentration gradient of 50 μM, 25 μM, 12.5 μM, 6.3 μM, 3.1 μM, 1.6 μM, 0.78 μM, 0.39 μM, 0.097 μM, 0.024 μM, and 0.0061 μM, and SB273005 was used as a positive control for a kinetic constant analysis.

[5] = system: tumor cells 22RV1; test: Anti-tumor activity assay (chemiluminescence CTG cell viability), 22RV1; assay type: cell-based; details: 22RV1 cells; for Hillslope 22RV1: fitted dose-effect curve; for IC50: Homo sapiens, 72 h, CTG chemiluminescence
Method: as §1, §2, §3, §4, §5, §6, §7, §8, §9, §10, §11

[6] = system: vascular endothelial cell HUVEC-T11; test: Activity assay (chemiluminescence), HUVEC-T11; assay type: cell-based; details: HUVEC-T11 cells, FIG. 21-22
[7] = system: ovarian cancer cell OVCAR-4; test: Anti-tumor activity assay (chemiluminescence), OVCAR-4; assay type: cell-based; details: OVCAR-4 cells, FIG. 21-22
Method: as §1
as §2, with “observed. […]” for “observed.”
(§12) Chemiluminescence method was used to measure ATP level of cells to evaluate cell viability. […] After mixing well, the lysis mixture was transferred to a microplate reader. After 5-10 minutes, the chemiluminescence data were gathered in the microplate reader. […]

[8] = system: melanoma cell WM115; test: Anti-tumor activity assay (chemiluminescence), WM115; assay type: cell-based; details: WM115 cells, FIG. 21-22
Method: as §1
as §2, with “observed. […]” for “observed.”
as §12

[9] = system: prostate cancer DU145 cells; test: Anti-tumor activity assay (chemiluminescence), DU145; assay type: cell-based; details: FIG. 21-22
Method: as §1
as §2, with “observed. […]” for “observed.”
as §12

[10] = system: prostate cancer PC-3 cells; test: Anti-tumor activity assay (chemiluminescence), PC-3; assay type: cell-based; details: FIG. 21-22
Method: as §1
as §2, with “observed. […]” for “observed.”
as §12

[11] = system: microvascular endothelial cell HMEC-1; test: Activity assay (chemiluminescence), HMEC-1; assay type: cell-based; details: HMEC-1 cells, FIG. 21-22
[12] = system: drug-resistant 22RV1 cells; test: Combination with enzalutamide on 22RV1 cells (chemiluminescence); assay type: cell-based; details: in combination with enzalutamide, enzalutamide-resistant 22RV1 cells, FIG. 23
Method: as §9

[13] = SPR, immobilized integrin αvβ3, 25° C., read-out: KD affinity

Structure (SMILES)	IC50 [3]	Kd [4, 13]	IC50 [5]	inhibition of microtubule formation [2]	Hillslope 22RV1 [5]	also measured
COc1ccc(/C=N/NC(=O)c2n[nH]c3c2CCCC3)cc1O [19-9]	1.09 µM	0.78 µM	0.47 µM	significant inhibition	−2.911	inhibition of angiogenesis (total length of blood vessels) compared with the VEGF group ([1]; 3.0 μM, FIG. 33-34): significantly inhibit angiogenesis
O=C(N/N=C/CCc1cccc(C(F)(F)F)c1)c1n[nH]c2c1CCCC2 [19-3]	19.6 µM					
O=C(N/N=C/c1cccc(O)c1)c1n[nH]c2c1CCCC2 [Formula (5)]						inhibitory effect (activity curve) [6]: inhibitory effect; inhibitory effect (activity curve) [7]: inhibitory effect; tumor-inhibiting effect (activity curve) [8]: highest tumor-inhibiting effect; anti-tumor activity (activity curve) [9]: obvious anti-tumor activity; anti-tumor activity (activity curve) [10]: obvious anti-tumor activity; anti-tumor activity (activity curve) ([3]; FIG. 21-22): obvious anti-tumor activity; Kd ([4]; stated in summary text, read-out: KD value interacting with the protein αvβ3): 0.158 µM; anti-tumor activity (activity curve) ([5]; FIG. 21-22): obvious anti-tumor activity; inhibitory effect (activity curve) [11]: inhibitory effect; effect of combination with enzalutamide [12]: synergistic effect
Cc1ccc(/C=N/NC(=O)c2n[nH]c3c2CCCC3)cc1O [19-6]	1.41 µM		0.86 µM	significant inhibition	−3.273	inhibition of angiogenesis (total length of blood vessels) compared with the VEGF group ([1]; 3.0 μM, FIG. 33-34): significantly inhibit angiogenesis
C/C(CCc1ccc(O)cc1)=N\NC(=O)c1n[nH]c2c1CCCC2 [19-1]	28.8 µM					
COc1ccc(/C=N/NC(=O)c2n[nH]c3c2CCCC3)cc1OC [19-7]	4.27 µM	10.1 µM	4.08 µM	did not show any obvious inhibition	−13.53	
O=C(N/N=C/c1ccc([N+](=O)[O-])cc1)c1n[nH]c2c1CCCC2 [19-8]	3.76 µM		3.49 µM	did not show any obvious inhibition	−1.177	

Second part, led by results:

IC50 [3]	Kd [4, 13]	IC50 [5]	Structure (SMILES)	inhibition of microtubule formation [2]	Hillslope 22RV1 [5]	also measured
0.36 µM		0.25 µM	Cc1ccc(/C=N/NC(=O)c2n[nH]c3c2CCCC3)cc1 [19-4]	significant inhibition	−4.343	inhibition of angiogenesis (total length of blood vessels) compared with the VEGF group ([1]; 0.1 μM, FIG. 32): significantly inhibit angiogenesis
36.7 µM	2.15 µM	49.6 µM	O=C(N/N=C/c1c(O)cc(O)cc1O)c1n[nH]c2c1CCCC2 [19-5]		−2.689	
19.6 µM		364 µM	CC(C)C/C=C(/C=N/NC(=O)c1n[nH]c2c1CCCC2)c1ccccc1 [19-2]		−0.7631	
